Test results from patent US10336732B2, “1-heterocyclyl isochromanyl compounds and analogs for treating CNS disorders” (Sunovion Pharmaceuticals Inc., priority 2015, dated 2019).

target: T1, 5-HT1A (Homo sapiens, UniProt P08908); assay: In vitro radioligand binding assay, 5-HT1A, [3H]8-OH-DPAT; parameters: concentration or dose not given beside the values; conditions: human recombinant (HEK-293 cells)
T1 construct: expressed in transfected cells; host or cells: HEK-293 cells
T1 sequence (P08908 1-422): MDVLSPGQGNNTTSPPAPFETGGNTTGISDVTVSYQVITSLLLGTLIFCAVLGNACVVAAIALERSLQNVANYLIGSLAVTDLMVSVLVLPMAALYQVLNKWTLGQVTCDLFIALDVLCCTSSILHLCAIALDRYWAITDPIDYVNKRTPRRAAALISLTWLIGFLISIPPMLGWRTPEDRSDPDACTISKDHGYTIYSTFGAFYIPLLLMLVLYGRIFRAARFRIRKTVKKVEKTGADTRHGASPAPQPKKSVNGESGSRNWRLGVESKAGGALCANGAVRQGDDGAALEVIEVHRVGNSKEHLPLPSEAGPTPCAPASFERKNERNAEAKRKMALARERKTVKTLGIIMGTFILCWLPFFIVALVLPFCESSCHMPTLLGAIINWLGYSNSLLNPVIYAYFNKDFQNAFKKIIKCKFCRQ
Experimental: Certain compounds were tested by in vitro binding assays using standard procedures. […] These receptors and assays are well known to those skilled in the art, as exemplified by the following: Abramovitz, M. et al. (2000), Biochem. Biophys. Acta., 1483: 285-293 (EP4, IP (PGI2)); Aharony, D. et al. (1993), Mol. Pharmacol., 44: 356-363 (NK2); Ardati, A. et al. (1997), Mol. Pharmacol., 51: 816-824 (NOP (ORL1)); Bignon, E. et al. (1999), J. Pharmacol. Exp. Ther. 289: 742-751 (CCK1 (CCKA)); Bloomquist, B. T. et al. (1998), Biochem. Biophys. Res. Commun., 243: 474-479 (GAL2); Brockhaus, M. et al. (1990), Proc. Natl. Acad. Sci. U.S.A., 87: 3127-3131 (TNF-α); Brown, G. B. (1986), J. Neurosci., 6: 2064-2070 (Na+ channel (site 2)); Buchan, K. W. et al. (1994), Brit. J. Pharmacol., 112: 1251-1257 (ETA); Cesura, A. M. et al. (1990), Mol. Pharmacol., 37: 358-366 (MAO-A); Choi, D. S. et al. (1994), FEBS Lett., 352: 393-399 (5-HT2B); Clark, A. F. et al. (1996), Invest. Ophtalmol. Vis. Sci., 37: 805-813 (GR); Couvineau, A. et al. (1985), Biochem. J., 231: 139-143 (VPAC1 (VIP1)); Dorje, F. et al. (1991), J. Pharmacol. Exp. Ther., 256: 727-733 (M1, M2, M3, M4); Ferry, G. et al. (2001), Eur. J. Pharmacol., 417: 77-89 (PPARγ); Fuchs, S. et al. (2001), Mol. Med., 7: 115-124 (ETB); Fuhlendorff, J. et al. (1990), Proc. Natl. Acad. Sci. U.S.A., 87: 182-186 (Y2); Ganapathy M E. et al. (1999), J. Pharmacol. Exp. Ther., 289: 251-260 (sigma (non-selective)); Gopalakrishnan, M. et al. (1996), J. Pharmacol. Exp. Ther., 276: 289-297 (N neuronal α4β2); Greengrass, P. and Bremner, R. (1979), Eur. J. Pharmacol., 55: 323-326 (α1 (non-selective)); Grandy, D. K. et al. (1989), Proc. Natl. Acad. Sci. U.S.A., 86: 9762-9766 (D25); Guard, S. et al. (1993), Eur. J. Pharmacol., 240:177-184 (BB (non-selective)); Heuillet, E. et al. (1993), J. Neurochem., 60: 868-876 (NK1, P2X); Hope, A. G. et al. (1996), Brit. J. Pharmacol., 118: 1237-1245 (5-HT3); Hoyer, D. et al. (1985), Eur. J. Pharmacol., 118: 1-12 (5-HT1B); Hugues, M. et al. (1982), J. Biol. Chem., 257: 2762-2769 (5-HT2A, SKCa channel); Joseph, S. S. et al. (2004), Naun.-Sch. Arch. Pharm., 369: 525-532 (β2); Le, M. T. et al. (2005), Eur. J. Pharmacol., 513: 35-45 (AT1); Le Fur, G. et al. (1983), Life Sci., 33: 449-457) (BZD (peripheral); Lee, Y. M. et al. (1993), J. Biol. Chem., 268: 8164-8169 (CCK2 (CCKB)); Leurs, R. et al. (1994), Brit. J. Pharmacol., 112: 847-854 (H2); Levin, M. C. et al. (2002), J. Biol. Chem., 277: 30429-30435 (11); Lewin, A. H. et al. (1989), Mol. Pharmacol., 35: 189-194 (Cl− channel (GABA-gated)); Lukas, R. J. (1986), J. Neurochem., 46: 1936-1941 (N muscle-type); Luthin, D. R. et al. (1995), Mol. Pharmacol., 47: 307-313; (A2A); Mackenzie, R. G. et al. (1994), Eur. J. Pharmacol., 266: 79-85 (D3); Mulheron, J. G. et al. (1994), J. Biol. Chem., 269: 12954-12962 (5-HT1A); Meng, F. et al. (1993), Proc. Natl. Acad. Sci. U.S.A., 90: 9954-9958 (κ (KOP)); Monsma, F. J. et al. (1993), Mol. Pharmacol., 43: 320-327 (5-HT6); Neote, K. et al. (1993), Cell, 72: 415-425 (CCR1); Pacholczyk, T. et al. (1991), Nature, 350: 350-354 (sst (non-selective, norepinephrine transporter)); Peralta, E. G. et al. (1987), Embo. J., 6: 3923-3929 (M3); Pristupa, Z. B. et al. (1994), Mol. Pharmacol., 45: 125-135 (dopamine transporter); Pruneau, D. et al. (1998), Brit. J. Pharmacol., 125: 365-372 (B2); Rees, S. et al. (1994), FEBS Lett., 355: 242-246 (5-HT5a); Reynolds, I. J. et al. (1986), J. Pharmacol. Exp. Ther., 237: 731-738 (Ca2+ channel (L, verapamil site)); Rinaldi-Carmona, M. et al. (1996), J. Pharmacol. Exp. Ther., 278: 871-878 (CB1); Salvatore, C. A. et al. (1993), Proc. Natl. Acad. Sci. U.S.A., 90: 10365-10369 (A3); Sarau, H. M. et al. (1997), J. Pharmacol. Exp. Ther., 281: 1303-1311 (NK3); Schioth, H. B. et al. (1997), Neuropeptides, 31: 565-571 (MC4); Sharples, C. […]

Q: With Fc1ccc2c(c1)CCO[C@H]2[C@@H]1CCCN1 [Compound I-9, (S)-2-((R)-6-fluoroisochroman-1-yl)pyrrolidine] as the molecule, how does the “5HT1a percent inhibition of specific binding” value (shortened to “5HT1a percent inhibition”) read?
A: The value was 77%.

Q: Which “5HT1a percent inhibition” value does the source give for Clc1ccc2c(c1)[C@H]([C@@H]1CCCN1)OCC2 [Compound I-29, (S)-2-((R)-7-chloroisochroman-1-yl)pyrrolidine] here?
A: Its value is 71%.

Q: Which “5HT1a percent inhibition” value does the source give for Fc1cccc2c1[C@H]([C@@H]1CCCN1)OCC2 [Compound I-1, (S)-2-((R)-8-fluoroisochroman-1-yl)pyrrolidine] here?
A: Its value is 79%.

Q: Fc1ccc2c(c1)[C@H]([C@@H]1CCCN1)OCC2 [Compound I-5, (2S)-2-((R)-7-fluoroisochroman-1-yl)pyrrolidine] was tested. Which “5HT1a percent inhibition” value did it give?
A: Its value is 52%.

Q: Fc1cccc2c1[C@H]([C@@H]1CCN1)OCC2 [Compound I-83, (S)-2-((R)-8-fluoroisochroman-1-yl)azetidine] was tested. Which “5HT1a percent inhibition” value did it give?
A: Its value is 87%.

Q: Which “5HT1a percent inhibition” value does the source give for Fc1ccc2c(c1)CCO[C@H]2[C@@H]1CCN1 [Compound I-90, (S)-2-((R)-6-fluoroisochroman-1-yl)azetidine] here?
A: The value was 64%.
